36 compounds from PubChem BioAssay AID624491 (Broad Institute, 2012) can be followed below.

Molecules are shown by their SMILES. Calls of active or inactive are those of the source.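 The calls were made as follows: active = fitted curve crossing a set activation limit at or below the highest valid dose tested; inconclusive = flat fit at 30 to 70% activation, or poor fit; inactive = the rest, including signal decreases.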

This test concerns D54 ERlucT glycosylation luciferase reporter, luminescence, 24 h. Put plainly: blockers of NLG process in reporter cells – D54 ERlucT cells, luminescence, cherry-picks, dose response (AID 624491).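 Also: signal gain reflects blocked N-linked glycosylation of a luciferase reporter; actives raise luciferase signal so AC26 marks activators of the reporter.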
`CCCCn1c(SCc2c(C)noc2C)nc2cc(S(N)(=O)=O)ccc21`: the AC26 is 1190 nM.
Then `COc1ccc(-c2cc3ccccc3oc2=O)cc1NC(=S)NC(=O)c1ccc2c(c1)OCCO2`, with 3970 nM; and `O=C(N/N=C/c1ccc(Cl)cc1)c1sccc1OCc1ccc(F)cc1`, with 83.6 nM.
For `C[C@@]12C(=O)Nc3ccc(F)cc3C(=O)N1[C@H]1c3cc(Cl)ccc3OC[C@@H]1[C@@H]2c1ccccc1` the value was 1070 nM; for `CCc1cc2c(=O)n(Cc3ccco3)c(SCc3c(C)noc3C)nc2s1`, 249 nM; for `CN(C)/N=C/C=C1\CCC/C(=C\c2ccc(F)c(F)c2)C1=O`, 966 nM.
Consider `c1cnc2nc3c4ccccc4c4ccccc4c3nc2c1`, for which the AC26 is 10200 nM.
Take `COc1ccc([C@@H]2[C@@H]3C(=O)N(C(C)(C)C)C(=O)[C@@H]3[C@]3(Cc4ccccc4)C(=O)N(c4cccc(Br)c4)C(=O)N23)cc1`: the AC26 was 1600 nM.
Then `O=C(CCl)Nc1cn(-c2ccccc2)nc1-c1ccc(F)cc1`, with 3860 nM.
For `CCCCc1ccc(N/C(N)=N/c2nc(C)cc(C)n2)cc1` the value was 4690 nM.
Then `COc1ccc(-c2cc(-c3ccc(O)cc3)nc(N)c2C#N)cc1OC`, with 4050 nM; and `Cc1cccc2c(N)c3c(nc12)N(C)CC3`, with 7370 nM.
`CN(Cc1ccccc1)c1nc2c(c(=O)n(C)c(=O)n2C)n1CCCc1ccccc1`: the AC26 is 981 nM.
For `O=C(Nc1cc(Cl)ccc1N1CCOCC1)c1ccc(N2CCCC2=O)cc1` the value was 108 nM.
Then `Cc1ccc(Nc2nc(N)nc(CN3CCN(Cc4ccccc4)CC3)n2)cc1Cl`, with 110 nM.
Then `O=c1[nH]c(-c2ccccc2)nc2sc(-c3ccccc3)cc12`, with 2320 nM; and `Cn1nc(-c2ccc(N3CCOCC3)c(NS(=O)(=O)c3ccccc3)c2)c2ccccc2c1=O`, with 6110 nM.
Take `COC(=O)/C=C1\C(=O)N(c2nc3ccccc3s2)C(=S)N1c1ccc(F)cc1`: the AC26 is 2300 nM.
For `CN(C)CCNc1cccc2sc3ccc(O)cc3c(=O)c12` the value was 500 nM.
For the compound `Cc1ccc(NC2=NC3(CCCC3)N=C(N)N2)c(C)c1`, the AC26 is 4230 nM.
For `Cc1cc(NC(=O)COC(=O)c2ccc(S(=O)(=O)N3CCCc4ccccc43)cc2)no1` the value was 665 nM; for `COc1ccc(C(=O)/C=C2/C(=O)Nc3ccccc32)cc1OC`, 714 nM; for `CC(=O)Nc1sc(C)c(C)c1C(=O)OCC(=O)Nc1ccccc1`, 4780 nM.
For `c1ccc(-c2cc(-c3nnc4n3N=C(c3ccc5ccccc5c3)CS4)[nH]n2)cc1` the value was 2110 nM.
For `CN(Cc1ccccc1)c1nc2c(c(=O)[nH]c(=O)n2C)n1CCCc1ccccc1` the value was 2830 nM; for `Cc1cc(C)c2nc3nc(C)cc(C)c3c(N)c2c1`, 145 nM; for `O=C1NC[C@H](Cc2ccccc2)N(C[C@H]2CCCN2C[C@H](Cc2ccccc2)N2C[C@H](Cc3ccc(O)cc3)N(CCc3ccccc3)C(=O)C2=O)C1=O`, 5790 nM.
As for `COc1cccc(/C=N/NC(=O)c2cc3c(OC)c(OC)ccc3[nH]2)c1OC`, the AC26 was 5850 nM.
For `O=C(COC(=O)c1ccc(NS(=O)(=O)c2cccs2)cc1O)NCc1ccccc1` the value was 4820 nM; for `CCCCCCCCCCCCCCCCCCNc1ccn(C2OC(COP(=O)(O)OCC3OC(n4cc(F)c(=O)[nH]c4=O)CC3O)C(O)C2O)c(=O)n1` (stereo unspecified), 3970 nM; for `O=C(/C=C/c1c[nH]c2ccccc12)c1cccc2ccccc12`, 5410 nM.
For `COc1ccc(C(=O)NCCN(C)C)c2nc3ccccc3cc12` the value was 128 nM; for `CC(C)(C)c1ccc(C(=O)O/N=C(\N)Cc2cccs2)cc1`, 11800 nM.
For `O=[N+]([O-])c1cc(S(=O)(=O)C(F)(F)F)ccc1Sc1nc2ccccc2[nH]1`, the AC26 is 4570 nM.
For `CCOC(=O)C(C)Oc1cccc2c(=O)n(CC(=O)NCc3ccco3)ccc12` (stereo unspecified) the value was 1380 nM; for `CCOC(=O)/C=C/C(=O)Nc1ccc(S(=O)(=O)N(C)c2ccccc2)cc1`, > 5000 nM (inactive).
